Measurements reported in patent publication US20120070451A1, “METHODS AND COMPOSITIONS FOR MODULATING CARDIAC CONTRACTILITY” (Consiglio Nazionale Delle Ricerche, priority 2009, published 2012).
Values belong to the compound of their own block, whether it stands above or below them. Residues, ends and D or L forms follow the SMILES beside them. *: point of attachment. Cbz = O=C(OCc1ccccc1)*

Assays:
Cavα1 C-terminal domain = assay: GST pull-down in vitro binding assay; conditions: for Interaction with Cavα1 C-terminal domain: 35S-methionine-labeled C-Cavα1 (aa 1477-2169)
From the text: FIG. 7. Rapid-protein-degradation PEST sequences determine Cavα1 protein instability. (A) Schematic representation of Cavα1 mapping the α1-interacting domain (AID) and PEST sequences in the I-II and II-III cytosolic loops. Deleted PEST sequences (P, H) are highlighted in red. (B) Western blot and immunofluorescence analyses showing relative levels of WT and PEST deleted mutants of YFP-Cavα1 (n=3). Bar represents 5 μm. (C) Wild-type Cavα1 subunit (alone or cotransfected with Cavβ2SE) and its in-frame ΔPEST mutants (Cavα1-ΔP and Cavα1-ΔH) half-lives were determined in COST cells. After overnight starvation, transfected cells were pulse-chased and analyzed along a time course (*P<0.001 compared to Cavα1, ANOVA; n=3). (D) Western blot and immunofluorescence analyses showing relative levels of WT GFP and N-terminal fusion PEST mutants (n=3). Bar represents 20 μm. (E) The Cavα1 C-terminus interacts with the Akt-phosphorylated-GST-Cavβ2 coiled coil region. Bacterially expressed GST or GST-C-Cavβ2 (Cavβ2: aa 480-655) fusion protein and glutathione sepharose beads were incubated with equal amounts of in vitro translated [^35S] methionine-labeled C-Cavα1 (Cavα1: aa 1477-2169). […] Bound proteins were resolved by SDS-PAGE (4-12%). 10% of the input protein in each binding reaction is shown. Coomassie staining of SDS-PAGE is shown in the bottom panel. (F) Ca^2+ currents recorded in tsA-201 cells cotransfected with Cavβ2-WT and either Cavα1-WT or Cavα1-ΔH and cultivated for 36 h in the presence or absence of fetal bovine serum (10%). Current densities (pA/pF) are normalized to the control condition. n>35 at each condition, (*P<0.05 compared to Cavα1, ANOVA). […]
Affinity-purified GST-fusion proteins were generated using a pGEX system (Amersham) and phosphorylated as described below. […] Bound proteins were eluted in SDS sample buffer, subjected to SDS-PAGE, and detected by autoradiography. […]

Cavα1 = assay: Western blot of YFP-Cavα1 in transfected COS-7 cells treated with Akt inhibitor and degradation-system inhibitors; format: cell-based
Protocol: FIG. 3. Akt mediates regulation of Cavα1 protein density at the plasma membrane. (A) RT-PCR analysis of Cavα1 mRNA expression from WT and KO ventricular extracts. GADPH serves as loading control. (B) Western blot analysis of whole lysate, membrane, and microsomal fractions from WT and KO ventricular extracts. (C) YFP-Cavα1 transfected COS-7 cells alone or in combination with Cavβ2-expression vector were serum-starved and treated with Akt inhibitor and 1 μM bafilomycin-A1, 25 μM MG132, or 25 μM calpeptin. 6 h post drug administration, cell lysates were prepared and subjected to Western blot analysis for YFP. GAPDH served as a loading control. (D-E) Cavα1 protein levels in KO cardiomyocytes infected with empty (mock) or active E40K-Akt (AdAkt) expressing adenoviral vector (D) and in whole lysates of WT and E40K-Akt (Tg Akt) hearts (E). Representative experiments are shown (n=4).
However, since the amount of Cavα1 was reduced in both microsomal and membrane fractions from KO extracts compared to WT (FIG. 3B), we hypothesized that the reduced Cavα1 level observed in KO mice was due to enhanced protein degradation in addition to impaired protein translocation to the plasma membrane. To assess the pathway involved in the Akt-dependent Cavα1 protein degradation, three sets of specific cell degradation system inhibitors were examined for their ability to prevent the decrease in Cavα1 protein elicited by Akt inhibition. […] Similar results were obtained by inhibiting calpain, the intracellular, Ca^2+-dependent cysteine protease known to be involved in membrane protein degradation (Belles et al., 1988; Romanin et al., 1991).
Cell transfection was performed in serum-starved medium using LipoFectamine2000 (Invitrogen) according to the manufacturer's instructions. 5 μM Akt-XI inhibitor (Calbiochem), insulin (Sigma), 1 μM bafilomycin-A 1 (Sigma), 25 μM MG132 (Calbiochem), and 25 μM Calpeptin (Calbiochem) were used as described. […]
Proteins expression was evaluated in total lysates or cell fractions by Western blot analysis according to standard procedures. […]

Cavα1 currents = assay: Whole-cell patch clamp Ca2+ current (ICa,L) in cotransfected tsA-201 cells with or without serum; format: cell-based; conditions: cotransfection with Cavα1; 36 h
Protocol: FIG. 6. Akt phosphorylation of Cavβ2 preserves Cavα1 currents. Ca^2+ currents recorded in cotransfected tsA-201 cells with YFP-Cavα1 and either Cavβ2-WT, Cavβ2-SE, or Cavβ2-SA mutant, cultivated for 36 h in the presence or absence of fetal bovine serum (10%). Currents were recorded 1-2 minutes after the whole-cell configuration was achieved (i.e. after stabilization of the current) and were elicited by a 0 mV depolarization of 200 ms duration applied from a holding potential of −80 mV. Currents are normalized to cell capacitance (Current density, pA/pF). Representative current traces are shown. n>35 at each condition, (*P<0.05 compared to YFP-Cavα1, ANOVA).
FIG. 7. […] (C) Wild-type Cavα1 subunit (alone or cotransfected with Cavβ2SE) and its in-frame ΔPEST mutants (Cavα1-ΔP and Cavα1-ΔH) half-lives were determined in COST cells. After overnight starvation, transfected cells were pulse-chased and analyzed along a time course (*P<0.001 compared to Cavα1, ANOVA; n=3). […] (F) Ca^2+ currents recorded in tsA-201 cells cotransfected with Cavβ2-WT and either Cavα1-WT or Cavα1-ΔH and cultivated for 36 h in the presence or absence of fetal bovine serum (10%). […]
Macroscopic Ice, was recorded at room temperature (˜22° C.) using the whole-cell patch clamp technique in native cells as previously described (Aimond et al., 2005; Maier et al., 2003). […]

[1] = Cavα1 and Cavβ2 cotransfected cells, 1 μM bafilomycin-A1, 25 μM MG132 or 25 μM calpeptin, 6 h

Interaction with Cavα1 C-terminal domain (Cavα1 C-terminal domain): direct interaction took place
Interaction with Cavα1 C-terminal domain (Cavα1 C-terminal domain; listed as Akt-phosphorylated GST-C-Cavβ2): Binding occurred
Interaction with other Cavα1 cytosolic domains (Cavα1 C-terminal domain; data not shown): No interactions were found
Compound: Akt-phosphorylated Cavβ2 C-terminal coiled coil region: bacterially expressed GST-C-Cavβ2 (Cavβ2: aa 480-655) fusion protein phosphorylated by recombinant Akt

Compound: CC(C)C[C@@H](C=O)NC(=O)[C@H](CC(C)C)NC(=O)[C@H](CC(C)C)NC(=O)OCc1ccccc1 [MG132] (Cbz-Leu-Leu-Leu-aldehyde)
Cavα1 protein decrease induced by Akt inhibition (Cavα1; [1]): failed to protect Cavα1 from protein degradation

Compound: Cavβ2-WT: wild-type Ca2+ beta2 channel accessory subunit
ICa,L in serum-free medium compared to serum-containing medium (Cavα1 currents): significant depressed ICa,L

Compound: CO/C1=C\C(C)=C\[C@@H](C)[C@@H](O)[C@@H](C)C/C(C)=C/C=C/[C@H](OC)[C@@H]([C@@H](C)[C@@H](O)[C@H](C)[C@@]2(O)C[C@@H](O)[C@H](C)[C@@H](C(C)C)O2)OC1=O [bafilomycin-A1]
Cavα1 protein decrease induced by Akt inhibition (Cavα1; [1]): prevented the decrease in Cavα1 protein induced by Akt inhibition
Cavα1 protein decrease induced by Akt inhibition (Cavα1; absence of Cavβ2 cotransfection): protection effect was abolished
